Source: PubChem BioAssay AID1918954 (Molecular Pharmacology Branch, DTP, NCI, 2023)
Where “and” joins values, the source holds several entries; their conditions need not be identical. Equal entries are not always repeated.

System: MDA-MB-468 complex spheroids with HUVEC/MSC, viability
Assay: Anticancer human tumor MDA-MB-468 cell line growth inhibition;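 note: spheroids exposed to agents for seven days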;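 for viability, T/C: 100% = DMSO vehicle control viability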
Conditions: for viability, T/C: stronger effect = lower value
How it was run: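 Multicellular complex spheroids of tumor cells with human endothelial cells (HUVEC) and mesenchymal stem cells; the LSD1 inhibitor iadademstat was combined with standard-of-care or investigational agents. Top concentration at or near clinical Cmax, half-log dilutions; final DMSO ≤0.25%.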

[1] = curve of first compound, second compound 0.1 µM
[2] = curve of first compound, second compound 0.316 µM
[3] = curve of first compound, second compound 1 µM
[4] = curve of first compound, second compound 3.16 µM
[5] = curve of first compound, second compound 10 µM
[6] = second compound 0.1 µM, first compound 0.00316 µM
[7] = second compound 0.1 µM, first compound 0.01 µM
[8] = second compound 0.1 µM, first compound 0.0316 µM
[9] = second compound 0.1 µM, first compound 0.1 µM
[10] = second compound 0.316 µM, first compound 0.00316 µM
[11] = second compound 0.316 µM, first compound 0.01 µM
[12] = second compound 0.316 µM, first compound 0.0316 µM
[13] = second compound 0.316 µM, first compound 0.1 µM
[14] = second compound 1 µM, first compound 0.00316 µM
[15] = second compound 1 µM, first compound 0.01 µM
[16] = second compound 1 µM, first compound 0.0316 µM
[17] = second compound 1 µM, first compound 0.1 µM
[18] = second compound 3.16 µM, first compound 0.00316 µM
[19] = second compound 3.16 µM, first compound 0.01 µM
[20] = second compound 3.16 µM, first compound 0.0316 µM
[21] = second compound 3.16 µM, first compound 0.1 µM
[22] = second compound 10 µM, first compound 0.00316 µM
[23] = second compound 10 µM, first compound 0.01 µM
[24] = second compound 10 µM, first compound 0.0316 µM
[25] = second compound 10 µM, first compound 0.1 µM
[26] = second compound 0.1 µM, first compound 0.316 µM
[27] = second compound 0.1 µM, first compound 1 µM
[28] = second compound 0.316 µM, first compound 0.316 µM
[29] = second compound 0.316 µM, first compound 1 µM
[30] = second compound 1 µM, first compound 0.316 µM
[31] = second compound 1 µM, first compound 1 µM
[32] = second compound 3.16 µM, first compound 0.316 µM
[33] = second compound 3.16 µM, first compound 1 µM
[34] = second compound 10 µM, first compound 0.316 µM
[35] = second compound 10 µM, first compound 1 µM

Structure (SMILES)	IC50 [1] [nM]	IC50 [2] [nM]	IC50 [3] [nM]	IC50 [4] [nM]	IC50 [5] [nM]	viability, T/C [6] [%]	viability, T/C [7] [%]	viability, T/C [8] [%]	viability, T/C [9] [%]	viability, T/C [10] [%]	viability, T/C [11] [%]	viability, T/C [12] [%]	viability, T/C [13] [%]	viability, T/C [14] [%]	viability, T/C [15] [%]	viability, T/C [16] [%]	viability, T/C [17] [%]	viability, T/C [18] [%]	viability, T/C [19] [%]	viability, T/C [20] [%]	also measured
CC(C)CC(NC(=O)CNC(=O)c1cc(Cl)ccc1Cl)B1OC(=O)CC(CC(=O)O)(C(=O)O)O1 (stereo not given) + NC1CCC(NC2CC2c2ccccc2)CC1	3.9	3.97	3.33	4.4	2.99	59.5	8.34	1.37	1.7	60.4	7.32	2.63	1.14	52.1	9.33	1.32	1.76	67	7.42	1.53	viability, T/C (second compound 0.1 µM, first compound 0.000316 µM): 110%; viability, T/C (second compound 0.1 µM, first compound 0.001 µM): 115%; viability, T/C (second compound 0.316 µM, first compound 0.000316 µM): 98.6%; viability, T/C (second compound 0.316 µM, first compound 0.001 µM): 99.2%; viability, T/C (second compound 1 µM, first compound 0.000316 µM): 89.9%; viability, T/C (second compound 1 µM, first compound 0.001 µM): 118%; viability, T/C (second compound 3.16 µM, first compound 0.000316 µM): 72.7%; viability, T/C (second compound 3.16 µM, first compound 0.001 µM): 101%; viability, T/C [21]: 1.59%; viability, T/C (second compound 10 µM, first compound 0.000316 µM): 80.6%; viability, T/C (second compound 10 µM, first compound 0.001 µM): 65.4%; viability, T/C [22]: 50.3%; viability, T/C [23]: 4.74%; viability, T/C [24]: 2.13%; viability, T/C [25]: 2.15%
COc1cc(Nc2ncc3c(n2)-c2ccc(Cl)cc2C(c2c(F)cccc2OC)=NC3)ccc1C(=O)O + NC1CC1c1ccc(-c2cccc(O)c2)cc1	< 3.16	< 3.16	< 3.16	< 3.16	< 3.16	15.5	6.89	6.01	4.91	14.5	6.72	5.86	5.06	14.1	7.25	5	4.96	14.1	8	5.68	viability, T/C [26]: 3.38%; viability, T/C [27]: 2.48%; viability, T/C [28]: 3.01%; viability, T/C [29]: 2.59%; viability, T/C [30]: 2.88%; viability, T/C [31]: 1.8%; viability, T/C [21]: 5.16%; viability, T/C [32]: 3.35%; viability, T/C [33]: 2.58%; viability, T/C [22]: 12.6%; viability, T/C [23]: 7.29%; viability, T/C [24]: 6.71%; viability, T/C [25]: 5.57%; viability, T/C [34]: 3.87%; viability, T/C [35]: 4.35%
CC(C)CC(NC(=O)C(Cc1ccccc1)NC(=O)c1cnccn1)B(O)O (stereo not given)																					viability, T/C (compound 0.00316 µM): 0.95% and 0.15%; viability, T/C (compound 0.01 µM): 1.2% and 0.15%; viability, T/C (compound 0.0316 µM): 1.22% and 0.17%; viability, T/C (compound 0.1 µM): 1.51% and 0.22%; IC50 (curve of compound): 0.684 nM and < 0.316 nM
O=C(C=Cn1cnc(-c2cc(C(F)(F)F)cc(C(F)(F)F)c2)n1)NNc1cnccn1 + NC1CC1c1ccc(-c2cccc(O)c2)cc1	< 3.16	< 3.16	< 3.16	< 3.16	< 3.16	38.1	30.3	20.7	3.44	36.9	31	19.6	3.54	38.5	28.9	18.1	3.32	33.8	34.2	19.7	viability, T/C [26]: 1.7%; viability, T/C [27]: 0.86%; viability, T/C [28]: 1.34%; viability, T/C [29]: 0.96%; viability, T/C [30]: 1.45%; viability, T/C [31]: 0.94%; viability, T/C [21]: 3.27%; viability, T/C [32]: 1.83%; viability, T/C [33]: 1.13%; viability, T/C [22]: 31%; viability, T/C [23]: 28.9%; viability, T/C [24]: 18.3%; viability, T/C [25]: 4.7%; viability, T/C [34]: 2.04%; viability, T/C [35]: 1.62%
